Experiments:
[1] = Anatomical distribution of i.v. injected 125I-labeled peptides; format: in vivo; conditions: C57BL/6 mice, 8 μg 125I-labeled peptide i.v., n = 2 per group
Description: Unconjugated fNLPNTL and FITC- fNLPNTL were reconstituted at a concentration of 4 mg/ml in DMSO. […] of the solution, corresponding to 100 μg of each peptide was further diluted in PBS to a final volume of 200 μl and incubated with carrier-free Na^125I for 1h at RT, using Iodogen as described by the manufacturer. The labeled peptides were separated from unbound ^125I by elution with PBS through PD-10 columns. The specific radioactivities were 0.98 x 10^6 cpm/μg and 0.12 x 10^6 cpm/μg for ^125I-FITC-fNLPNTL and ^125I-fNLPNTL, respectively.
Prior to experiments, mice were weighed and pre-warmed in a temperature controlled chamber to stimulate dilation of the tail veins. […] The amount of radioactivity was measured in all organs and in the blood sample. The radioactivity per total volume of blood was calculated considering that the average amount of blood in a mouse is approximately 58.5 ml per kg of bodyweight (according to the National Centre for the Replacement Refinement & Reduction of Animals in Research). The amount of tracer recovered was the sum of radioactivity of individual organs, carcass and the radioactivity calculated in total blood volume.
Fig 2 Anatomical distribution of i.v. administered fNLPNTL. […] Blood, internal organs and carcass were harvested and analyzed for radioactivity. […]

mouse Heps (mHeps) = test: Endocytosis competition of FITC-fNLPNTL uptake, fluorescence microscopy; format: cell-based; conditions: primary mHeps, 4 h serum starved, 100 μg/ml competitor pre-incubated 30 min, then 20 μg/ml FITC-fNLPNTL 60 min at 37°C
[2] = tested on: human hepatocytes (hHeps); test: as above; format: cell-based; conditions: primary hHeps, 4 h serum starved, 100 μg/ml competitor pre-incubated 30 min, then 20 μg/ml FITC-fNLPNTL 60 min at 37°C
From the text: (§1) Human hepatocytes (hHeps) and LSECs (hLSECs) were isolated from encapsulated liver resections based on a method described elsewhere. The procedure involves collagenase perfusion through cut blood vessels exposed on the surface of the liver resection. hHeps were isolated by low speed differential centrifugation, and the hLSECs purified by immunomagnetic isolation using mouse anti-human CD32 (Fitzgeralg Industries International INC, North Acton, MA, USA) and Dynabeads® Sheep anti-mouse IgG (Thermo Scientific, Oslo, Norway). The viability of hLSECs as judged by trypan blue exclusion was 95%, and the yield of hLSECs varied from 1 to 10 million depending on the size of the liver resection. The purity of the hLSECs isolation was between 85 and 95%, as judged by light microscopy. This variation in purity is due to donor variation. […]
(§2) Primary cultures of mouse and human Heps and LSECs were seeded on Permanox chamber slides coated with human fibronectin. […] After removal of unbound ligand by extensive washing with PBS, the cultures were fixed with 4% PFA and processed for fluorescence microscopy as described above.
(§3) After the removal of unbound ligands by extensive washing with PBS, the cultures were fixed with 4% PFA and processed for fluorescence microscopy.

mouse LSECs (mLSECs) = test: as above; format: cell-based; conditions: primary mLSECs, 4 h serum starved, 100 μg/ml competitor pre-incubated 30 min, then 20 μg/ml FITC-fNLPNTL 60 min at 37°C
Description: Mouse Heps (mHeps) and LSECs (mLSECs) were prepared by collagenase (Liberase) perfusion of mouse livers, followed by a low-speed differential centrifugation to separate Heps, and density sedimentation of the non-Heps enriched in the supernatant, on 25%– 45% Percoll gradients to collect LSECs and Kupffer cells (KCs), as described. Mouse LSECs were obtained after a panning step of 8 min at 37°C to remove KCs. The purity of mLSECs was between 90 and 95% as judged by fenestration assessed by scanning electron microscopy and positive immunostaining for the LSEC specific marker, stabilin 2. The remaining 5–10% of cells in these cultures represented KCs/monocytes and stellate cells. […]
as §2, §3
(§4) Primary cultures of hLSECs (A) and mLSECs (B) were established on Permanox chamber slides coated with human fibronectin. […] After removal of unbound ligands by extensive washing with PBS, the cultures were fixed with 4% PFA and processed for fluorescence microscopy.

human LSECs (hLSECs) = test: as above; format: cell-based; conditions: primary hLSECs, 4 h serum starved, 100 μg/ml competitor pre-incubated 30 min, then 20 μg/ml FITC-fNLPNTL 60 min at 37°C
From the text: as §1, with “resection.” for “resection. The purity of the hLSECs isolation was between 85 and 95%, as judged by light microscopy. This variation in purity is due to donor variation.”
as §2, §3, §4

Row | Substance | uptake in the liver compared to that of native fNLPNTL ([1]; 30 min post injection) | major organ of uptake ([1]; organs analysed 30 min post injection after systemic perfusion, radioactivity as % of total recovered) | inhibition of uptake of FITC-fNLPNTL in mHeps by competitor (mouse Heps (mHeps)) | inhibition of uptake of FITC-fNLPNTL in hHeps by competitor [2] | inhibition of uptake of FITC-fNLPNTL in mLSECs by competitor (mouse LSECs (mLSECs)) | inhibition of uptake of FITC-fNLPNTL in hLSECs by competitor (human LSECs (hLSECs))
1 | Fluorescein-isothiocyanate- N-Formyl-Nle-Leu-Phe-Nle-Tyr-Lys [FITC-fNLPNTL, fluorescein isothiocyanate derivative of fNLPNTL from Thermo Scientific] | three-fold higher | liver |  |  |  | 
2 | N-Formyl-Nle-Leu-Phe-Nle-Tyr-Lys [fNLPNTL, N-formyl peptide purchased from Phoenix Pharmaceuticals] |  |  | blocked | blocked | less marked effect | less marked effect
3 | FSA: Formaldehyde-treated bovine serum albumin, ligand specifically endocytosed by the LSECs scavenger receptors |  |  |  |  | inhibited | inhibited
